Experimental data as given in patent US20230002352A1, “SULFONAMIDE DERIVATIVES AS CTPS1 INHIBITORS” (Step Pharma S.A.S., priority 2019, published 2023).

Target: T1, human CTPS1 (Homo sapiens, UniProt P17812)
T1 construct: purchased Proteros biostructures GmbH
T1 sequence (P17812 1-591): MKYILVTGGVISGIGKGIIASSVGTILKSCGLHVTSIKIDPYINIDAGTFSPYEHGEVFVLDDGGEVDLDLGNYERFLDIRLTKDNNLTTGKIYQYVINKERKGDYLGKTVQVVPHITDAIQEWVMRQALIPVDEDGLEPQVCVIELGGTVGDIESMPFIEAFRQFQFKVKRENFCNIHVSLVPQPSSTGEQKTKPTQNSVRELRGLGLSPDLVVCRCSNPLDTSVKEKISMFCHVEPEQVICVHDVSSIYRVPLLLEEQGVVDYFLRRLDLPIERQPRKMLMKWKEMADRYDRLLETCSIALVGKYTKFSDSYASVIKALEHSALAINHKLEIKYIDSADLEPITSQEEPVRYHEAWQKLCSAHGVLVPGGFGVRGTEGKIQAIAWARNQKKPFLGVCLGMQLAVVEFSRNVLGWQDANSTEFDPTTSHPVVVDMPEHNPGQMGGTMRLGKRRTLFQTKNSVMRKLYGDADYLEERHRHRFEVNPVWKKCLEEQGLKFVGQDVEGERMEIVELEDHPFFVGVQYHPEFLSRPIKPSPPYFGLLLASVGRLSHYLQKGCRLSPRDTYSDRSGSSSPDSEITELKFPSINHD
Assay: Human CTPS1 enzyme inhibition (ADP-Glo Max assay)
Type: biochemical
Conditions: Table 23; ADP-Glo Max assay; read-out: CTPS1 (Human CTPS1 Enzyme Inhibition data grouped by potency range, IC50)
Method in brief: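 Full-length FLAG-His-tagged human CTPS1 and compound were preincubated 10 min at 25 °C in 50 mM Tris pH 8.0, 10 mM MgCl2, 0.01% Tween-20, 2 mM L-cysteine. Substrate mix: ATP 0.31 mM, GTP 0.034 mM, UTP 0.48 mM, glutamine 0.186 mM; linear-phase reaction at 25 °C. ADP-Glo Max luminescence; IC50 from inhibition curve.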

SMILES	IC50 [nM]
CCOc1cncc(-c2ccc(NC(=O)C3(c4ccnc(NS(=O)(=O)C5CC5)n4)CC3)cc2)n1 [Example P83]	≤ 100
CC(C)Oc1cncc(-c2ccc(NC(=O)Cc3ccnc(NS(=O)(=O)C4CC4)n3)cc2)n1 [Example P21]	≤ 100
CC(C)(C(=O)Nc1ccc(-c2cnccn2)cc1)c1cccc(NS(=O)(=O)C2CC2)n1 [Example P185]	1000 to 10000

Same assay, conditions: Table 24; ADP-Glo Max assay; read-out: CTPS1 (Human CTPS1 Enzyme Inhibition data grouped by potency range, IC50)

SMILES	IC50 [nM]
CCOc1cncc(-c2ccc(NC(=O)C3(c4ccnc(NS(=O)(=O)C5CC5)n4)CCC(N(C)C)CC3)nc2)n1 (single isomer, unassigned) [Example P230, 1-(2-(cyclopropanesulfonamido)pyrimidin-4-yl)-4-(dimethylamino)-N-(5-(6-ethoxypyrazin-2-yl)pyridin-2-yl)cyclohexane-1-carboxamide]	≤ 100

Tested on: human CTPS1 versus CTPS2
Assay: Human CTPS1 versus CTPS2 selectivity assessment by RapidFire/MS analysis
Type: biochemical
Conditions: Table 26
Method: Biological Example 2—RapidFire/MS-Based Enzyme Selectivity Assays.
Human CTPS1 Versus CTPS2 Selectivity Assessment by RapidFire/MS Analysis.
The enzyme inhibitory activities against each target isoform of interest may be determined for the compounds of the invention using an optimised RapidFire high-throughput mass spectrometry (RF/MS) assay format. RF/MS assays for both human CTPS1 and CTPS2 may be performed in assay buffer consisting of 50 mM HEPES (Merck), 20 mM MgCl2, 5 mM KCl, 1 mM DTT, 0.01% Tween-20, pH to 8.0 accordingly. Human full-length active C-terminal FLAG-His-tag CTPS1 (UniProtKB-P17812, CTPS[1-591]-[…]) may be obtained from Proteros biostructures GmbH. Human full length active C-terminal FLAG-His-Avi tagged CTPS2 (UniProtKB-Q9NRF8, CTPS2 [1-586]-[…]) may be obtained from Harker Bio.
Human CTPS (1 or 2) protein may be prepared in 1× assay buffer to the final working protein concentration required for the reaction. A 2 uL volume per well of 2×CTPS (1 or 2) protein may be mixed with 40 nL of compound using acoustic (ECHO) delivery and incubated for 10 minutes at 25° C. Each isoform enzymatic reaction may be subsequently initiated by addition of 2 uL per well of a 2× substrate mix in assay buffer. For hCTPS1: ATP (0.3 mM), UTP (0.2 mM), GTP (0.07 mM) and L-glutamine (0.1 mM). For hCTPS2: ATP (0.1 mM), UTP (0.04 mM), GTP (0.03 mM) and L-glutamine (0.1 mM). Each mixture may be incubated for an appropriate amount of time per isoform within the determined linear phase of the reaction at 25° C. A 60 uL volume of stop solution (1% formic acid with 0.5 uM ^13C9-^15N3-CTP in H2O) may be added and the plate immediately heat-sealed and centrifuged for 10 minutes at 4,000 rpm. Following centrifugation, plates may be loaded onto the Agilent RapidFire microfluidic solid phase extraction system coupled to an AP14000 triple quadrupole mass spectrometer (RF/MS) for analysis.
In all cases, the enzyme converts UTP to CTP. Highly specific and sensitive multiple reaction monitoring (MRM) MS methods may be optimised for the detection of the enzymatic reaction product, CTP, and the stable isotope labelled product standard ^13C9-^15N3-CTP. Readout for data analysis may be calculated as the ratio between the peak area of the product CTP and the internal standard ^13C9-^15N3-CTP. For data reporting, the following equation may be used: […]
For each screening plate, the means of the negative (DMSO) and positive control values were used for the calculation of the respective assay window (S/B) and Z′ values. The median of the respective control values was used for calculation of percent inhibition according to the following equation: […]
Percentage inhibition was then plotted against compound concentration, and the 50% inhibitory concentration (IC50) was determined from the resultant concentration-response curve.
Fold selectivity between CTPS1 and CTPS2 was subsequently calculated according to the following equation: […]

SMILES	Selectivity (fold selectivity between CTPS1 and CTPS2)
CCOc1cncc(-c2ccc(NC(=O)C3(c4ccnc(NS(=O)(=O)C5CC5)n4)CC3)cc2)n1 [Example P83]	+++ (>60 fold (+++))
CCC(C(=O)Nc1ccc(-c2cncc(C(F)(F)F)n2)cn1)c1ccnc(NS(=O)(=O)C2CC2)n1 (stereo not drawn) [Example P87]	++ (>30-60 fold (++))
CC(C)Oc1cncc(-c2ccc(NC(=O)Cc3ccnc(NS(=O)(=O)C4CC4)n3)cc2)n1 [Example P21]	++ (>30-60 fold (++))
CCOc1cncc(-c2ccc(NC(=O)C(CC)c3ccnc(NS(=O)(=O)C4CC4)n3)cc2)n1 (stereo not drawn) [Example P105, 2-(2-(Cyclopropanesulfonamido)pyrimidin-4-yl)-N-(4-(6-ethoxypyrazin-2-yl)phenyl)butanamide]	++ (>30-60 fold (++))
CCOc1cncc(-c2ccc(NC(=O)C(CCOC)c3ccnc(NS(=O)(=O)C4CC4)n3)cc2)n1 (stereo not drawn) [Example P110]	++ (>30-60 fold (++))
CCOc1cncc(-c2ccc(NC(=O)C(C)(OC)c3cncc(NS(=O)(=O)C4CC4)n3)nc2)n1 (stereo not drawn) [Example P205a]	+++ (>60 fold (+++))
CCC(C(=O)Nc1ccc(-c2cncc(C(F)(F)F)n2)cc1)c1ccnc(NS(=O)(=O)C2CC2)n1 (stereo not drawn) [Example P103]	+ (2-30 fold (+))
CC(C)Oc1cncc(-c2ccc(NC(=O)C(C)(C)c3ccnc(NS(=O)(=O)C4CC4)n3)nc2)n1 [Example P9]	+++ (>60 fold (+++))
CCOc1cncc(-c2ccc(NC(=O)C(F)(CC)c3ccnc(NS(=O)(=O)C4CC4)n3)nc2)n1 (single isomer, unassigned) [Example P113, 2-(2-(cyclopropanesulfonamido)pyrimidin-4-yl)-N-(5-(6-ethoxypyrazin-2-yl)pyridin-2-yl)-2-fluorobutanamide]	+ (2-30 fold (+))
CCC(C(=O)Nc1ccc(-c2cncc(OCC(F)(F)F)n2)cc1)c1ccnc(NS(=O)(=O)C2CC2)n1 (stereo not drawn) [Example P108]	+++ (>60 fold (+++))
CCOc1cncc(-c2ccc(NC(=O)C(C)(CCOC)c3cncc(NS(=O)(=O)C4CC4)n3)nc2)n1 (stereo not drawn) [Example P198]	+++ (>60 fold (+++))
CCOc1cncc(-c2ccc(NC(=O)C(C)(OC)c3cncc(NS(=O)(=O)C4CC4)n3)nc2)n1 (stereo not drawn) [Example P205b]	++ (>30-60 fold (++))
CCC(C(=O)Nc1ccc(-c2cncc(OC)n2)cc1F)c1ccnc(NS(=O)(=O)C2CC2)n1 (stereo not drawn) [Example P95]	+ (2-30 fold (+))
CCOc1cncc(-c2ccc(NC(=O)C(F)(CC)c3ccnc(NS(=O)(=O)C4CC4)n3)nc2)n1 (single isomer, unassigned) [Example P114, 2-(2-(cyclopropanesulfonamido)pyrimidin-4-yl)-N-(5-(6-ethoxypyrazin-2-yl)pyridin-2-yl)-2-fluorobutanamide]	+++ (>60 fold (+++))
CCOc1cncc(-c2ccc(NC(=O)C(CC)c3cncc(NS(=O)(=O)C4CC4)n3)nc2)n1 (stereo not drawn) [Example P201]	+++ (>60 fold (+++))
CCOc1cncc(-c2ccc(NC(=O)C(CC)c3cccc(NS(=O)(=O)C4CC4)n3)cc2)n1 (stereo not drawn) [Example P191]	++ (>30-60 fold (++))
CCC(C(=O)Nc1ccc(-c2cncc(OC(C)C)n2)cn1)c1ccnc(NS(=O)(=O)C2CC2)n1 (stereo not drawn) [Example P89]	+++ (>60 fold (+++))
CCC(C(=O)Nc1ccc(-c2cncc(Cl)c2)cc1)c1ccnc(NS(=O)(=O)C2CC2)n1 (stereo not drawn) [Example P1, N-(4-(5-Chloropyridin-3-yl)phenyl)-2-(2-(cyclopropanesulfonamido)pyrimidin-4-yl)butanamide]	+ (2-30 fold (+))
CCC(C(=O)Nc1ccc(-c2cncc(OCC(F)(F)F)n2)cc1F)c1ccnc(NS(=O)(=O)C2CC2)n1 (stereo not drawn) [Example P98]	+++ (>60 fold (+++))
CCOc1cncc(-c2ccc(NC(=O)C(CC)c3cncc(NS(=O)(=O)C4CC4)n3)cc2)n1 (stereo not drawn) [Example P202]	+++ (>60 fold (+++))
CCOc1cncc(-c2ccc(NC(=O)C(F)(CC)c3cncc(NS(=O)(=O)C4CC4)n3)nc2)n1 (single isomer, unassigned) [Example P206]	+++ (>60 fold (+++))
CCOc1cncc(-c2ccc(C(=O)NC(CC)c3ccnc(NS(=O)(=O)C4CC4)n3)c(F)c2)n1 (stereo not drawn) [Example P216]	+++ (>60 fold (+++))
CCOc1cncc(-c2ccc(NC(=O)C(CC)c3ccnc(NS(=O)(=O)C4CC4)n3)c(F)c2)n1 (stereo not drawn) [Example P96]	+ (2-30 fold (+))
CCOc1cncc(-c2ccc(NC(=O)C(F)(CC)c3cncc(NS(=O)(=O)C4CC4)n3)nc2)n1 (single isomer, unassigned) [Example P207]	+ (2-30 fold (+))
CCOc1cncc(-c2ccc(NC(=O)C(F)(CC)c3ccnc(NS(=O)(=O)C4CC4)n3)nc2)n1 (racemic) [Example P112, 2-(2-(Cyclopropanesulfonamido)pyrimidin-4-yl)-N-(5-(6-ethoxypyrazin-2-yl)pyridin-2-yl)-2-fluorobutanamide]	++ (>30-60 fold (++))
CCOc1cncc(-c2ccc(NC(=O)C(F)(CC)c3cncc(NS(=O)(=O)C4CC4)n3)nc2)n1 (stereo not drawn) [Example P200]	++ (>30-60 fold (++))
CCOc1cncc(-c2ccc(NC(=O)C(CC)c3ccnc(NS(=O)(=O)C4CC4)n3)nc2)n1 (stereo not drawn) [Example P88]	+++ (>60 fold (+++))
CCOc1cncc(-c2ccc(NC(=O)C(CC)c3cccc(NS(=O)(=O)C4CC4)n3)nc2)n1 (stereo not drawn) [Example P188]	++ (>30-60 fold (++))

Same assay, conditions: Table 27

SMILES	Selectivity (fold selectivity between CTPS1 and CTPS2)
CCOc1cncc(-c2ccc(NC(=O)C3(c4ccnc(NS(=O)(=O)C5CC5)n4)CCC(N(C)C)CC3)nc2)n1 (single isomer, unassigned) [Example P230, 1-(2-(cyclopropanesulfonamido)pyrimidin-4-yl)-4-(dimethylamino)-N-(5-(6-ethoxypyrazin-2-yl)pyridin-2-yl)cyclohexane-1-carboxamide]	+++ (>60 fold (+++))
